Entries after “also recorded” stand apart in the source; their conditions may differ.
Key:
[1] = test system: V. cholerae; assay: V. cholerae chemotaxis assay (overexpressed cGAMP synthases); type: cell-based, Vibrio cholerae; conditions: overexpression as MBP N-terminal fusion, arabinose induced
Experimental: V. cholerae strains were cultured at 37° C. on LB media (1% tryptone, 0.5% yeast extract, 0.5% NaCl w/v), stored at −80° C. in LB supplemented with 30% glycerol, and were all derivatives of streptomycin resistant C6706 dncV: Tn (to remove endogenous 3′3′ cGAMP synthesis) (Davies et al. (2012) Cell 149:358-370). Where appropriate, antibiotics and supplemented nutrients were used at the following concentrations: streptomycin (100 μg ml^−1), carbenicillin (100 μg ml^−1), and diaminopimelic acid (300 μg ml^−1). hcGAS (D157-F522) and mcGAS (P147-L507) were codon optimized for bacterial expression (Genscript and IDT respectively), and all cGAS enzymes and control genes were overexpressed from a custom plasmid pBAD24T, a conjugation-proficient version of pBAD24 that harbors an arabinose inducible promoter and a strong ribosomal binding site (Guzman et al. (1995) J Bacteriol 177:4121-4130) that was further modified to include a new multiple cloning site. All genes overexpressed in V. cholera were encoded as MBP N-terminal fusions except the MBP alone negative control vector (Table 5).
[…]. V. cholerae chemotaxis assays were performed as previously described (Davies et al. (2012) Cell 149:358-370). Briefly, chemotaxis medium (1% tryptone, 0.5% NaCl, 0.3% agar w/v) was prepared, autoclaved, and stored at 2x concentration; and chemotaxis plates were prepared 2-24 h prior to inoculation. 2x medium was melted, diluted to 1× with sterile water, and supplemented with 0.2% (w/v) arabinose. Deep-well plates (OmniTray w/Lid, Thermo Fisher) were poured at 40 ml/plate. Overnight, stationary phase cultures (16-24 h post inoculation) were diluted 10-fold with fresh LB, arrayed in a 96-well plate, then applied to the surface of a chemotaxis plate via pinning with a 96-pin, floating pin replicator (VP 408FH, V&P Scientific). Alternatively, 1 μl of diluted culture was applied to the surface of chemotaxis agar by pipetting. Chemotaxis plates were incubated at 30° C. for 16-24 h.
Chemotaxis was quantified by imaging plates at 16-24 h post inoculation and digitally measuring the area of motile bacteria using ImageJ (Schneider et al. (2012) Nat Methods 9:671-675). Chemotaxis area was normalized to MBP alone vector for each experiment for expression of “chemotaxis as a % of MBP”. Values were transformed into “chemotaxis repression” by calculating (chemotaxis as a % of MBP)-1, then normalizing this value to dncV. Chemotaxis repression was determined and used to simplify a direct relationship between cGAMP levels and plotted values.

[2] = test system: 45 bp double-stranded interferon stimulatory DNA; assay: In vitro cGAS 2′3′ cGAMP synthesis assay; type: biochemical; conditions: for 2′3′ cGAMP synthesis: 45 bp DNA
Experimental: […]. Briefly, 1 μM cGAS (or other concentration as indicated) was incubated with a 45 bp double-stranded interferon stimulatory DNA (sense: 5′-[…]-3′, SEQ ID NO: 6; antisense: 5′-[…]-3′, SEQ ID NO: 7) (Stetson and Medzhitov (2006) Immunity 24:93-103) in the 20 μl reaction buffer containing 50 mM Tris-HCl pH 7.5, 35 mM KCl, 5 mM Mg(OAc)2, 1 mM DTT, 25 μM ATP, 25 μM GTP, and [α-^32P] ATP (˜1 μCi) at 37° C. for 30 min. Reactions were terminated by heating at 95° C. for 3 min, and subsequently incubated with 4 U of alkaline phosphatase (New England Biolabs) at 37° C. for 30 min to hydrolyze unreacted NTPs. One microliter of each reaction was spotted on a PEI-Cellulose F thin-layer chromatography plate (EMD Biosciences) developed with 1.5 M KH2PO4 (pH 3.8) as a running buffer. Radiolabeled products were detected by Typhoon Trio Variable Mode Imager system (GE Healthcare) and quantified with ImageQuant 5.2. […]. Briefly, ATP/GTP titrations (0, 5, 10, 25, 50, 100, 200, 400, 800, and 1000 μM) were performed in the presence of fixed cGAS (1 μM) and 45 bp dsDNA concentration (1.5 μM) in 10 μl of reaction buffer containing 50 mM Tris-HCl pH 7.5, 35 mM KCl, 5 mM Mg(OAc)2, 1 mM DTT, and [α-^32P] ATP (˜1 μCi) at 37° C. for 5 min. Reactions were terminated and analyzed using thin layer chromatography as indicated above. The ATP-dependent cGAS enzyme kinetics were plotted and fitted according to Michaelis-Menten substrate inhibition analysis in GraphPad Prism (version 7.0c).

[3] = test system: 45 bp dsDNA; assay: In vitro cGAS-DNA complex formation, electrophoretic mobility shift analysis; type: binding; conditions: 45 bp DNA, gradient dialysis
Experimental: cGAS-DNA complexes were stably assembled using a method adapted from a nucleosome assembly gradient dialysis protocol (Lee and Narlikar (2001) Current protocols in molecular biology Chapter 21, Unit 21.26), and complex formation was measured by electrophoretic mobility shift analysis. Briefly, a concentration gradient of recombinant protein (0.2, 0.4, 2, 10 μM) was incubated with 45 bp dsDNA (2 μM) in a high-salt buffer containing 20 mM HEPES-NaOH pH 7.8, […], 1 mM DTT at 4° C. for 20 min. The reconstitution mixture was then transferred into 8-10 kDa molecular weight cut-off dialysis tubing (Spectrum Labs), and placed into a beaker of the high-salt buffer. The KCl concentration was reduced gradually by slowly replacing high-salt buffer with low-salt buffer (20 mM HEPES-KOH pH 7.5, 50 mM KCl, 1 mM DTT) with a peristaltic pump (Bio-Rad) at a rate of […] for 48 hr at 4° C. After gradient dialysis, reactions were supplemented to 5% glycerol, and subsequently separated on a 2% agarose gel in 0.5×TBE buffer at 4° C. Agarose gels were stained in a solution containing 10 μg ml^−1 ethidium bromide and visualized with a ChemiDoc™ MP Imaging System (Bio-Rad). Alternatively, where indicated in FIGS. 8A and 8C, cGAS-DNA complexes were assembled by incubating directly in reaction buffer containing 20 mM HEPES-NaOH pH 7.8, […], 1 mM DTT at 4° C. for 20 min and analyzed by electrophoretic mobility shift analysis as indicated above.

[4] = test system: 17 bp DNA; assay: In vitro cGAS 2′3′ cGAMP synthesis assay, DNA length specificity; type: biochemical
Experimental: […]. Briefly, 1 μM cGAS ([…], SEQ ID NO: 6; antisense: 5′-[…]-3′, SEQ ID NO: 7) (Stetson and Medzhitov (2006) Immunity 24:93-103) in the 20 μl reaction buffer containing 50 mM Tris-HCl pH 7.5, 35 mM KCl, 5 mM Mg(OAc)2, 1 mM DTT, 25 μM ATP, 25 μM GTP, and [α-^32P] ATP (˜1 μCi) at 37° C. for 30 min. Reactions were terminated by heating at 95° C. for 3 min, and subsequently incubated with 4 U of alkaline phosphatase (New England Biolabs) at 37° C. for 30 min to hydrolyze unreacted NTPs. One microliter of each reaction was spotted on a PEI-Cellulose F thin-layer chromatography plate (EMD Biosciences) developed with 1.5 M KH2PO4 (pH 3.8) as a running buffer. Radiolabeled products were detected by Typhoon Trio Variable Mode Imager system (GE Healthcare) and quantified with ImageQuant 5.2. […]. Briefly, ATP/GTP titrations (0, 5, 10, 25, 50, 100, 200, 400, 800, and 1000 μM) were performed in the presence of fixed cGAS (1 μM) and 45 bp dsDNA concentration (1.5 μM) in 10 μl of reaction buffer containing 50 mM Tris-HCl pH 7.5, 35 mM KCl, 5 mM Mg(OAc)2, 1 mM DTT, and [α-^32P] ATP (˜1 μCi) at 37° C. for 5 min. Reactions were terminated and analyzed using thin layer chromatography as indicated above. The ATP-dependent cGAS enzyme kinetics were plotted and fitted according to Michaelis-Menten substrate inhibition analysis in GraphPad Prism (version 7.0c).

[5] = test system: V. cholerae genomic DNA; assay: In vitro cGAS 2′3′ cGAMP synthesis assay with bacterial genomic DNA; type: biochemical, Vibrio cholerae; conditions: purified V. cholerae genomic DNA

Molecule	V. cholerae chemotaxis repression [1]	higher-order cGAS-DNA complex formation [3]	2′3′ cGAMP synthesis / enzyme activation in response to short DNA [4]	lower molecular weight minimal cGAS-DNA complex formation [3]	other results
dncV	inhibited chemotaxis	–	–	–	–
hcGAS	no loss of chemotaxis	preferentially formed higher-order oligomeric complexes	remained inactive	–	enhanced 2′3′ cGAMP synthesis versus wild type hcGAS [2]: > 15 fold; 2′3′ cGAMP synthesis ([2]; listed as hcGAS*): activity comparable to wildtype mcGAS; catalytic efficiency of 2′3′ cGAMP synthesis, fold less efficient than mcGAS ([2]; varying ATP concentration, Michaelis-Menten with substrate inhibition): ~20 fold
mcGAS	potently arrested chemotaxis	–	recognized both 45 bp and 17 bp DNA with near equal efficiency	formed two types of DNA complexes	2′3′ cGAMP synthesis in response to bacterial genomic DNA [5]: produces more 2′3′ cGAMP than hcGAS
hcGAS K187N/L195R (protein, UniProt Q8N884 1-522, looked up, variant K187N L195R) Cyclic GMP-AMP synthase: MQPWHGKAMQRASEAGATAPKASARNARGAPMDPTESPAAPEAALPKAGKFGPARKSGSRQKKSAPDTQERPPVRATGARAKKAPQRAQDTQPSDATSAPGAEGLEPPAAREPALSRAGSCRQRGARCSTKPRPPPGPWDVPSPGLPVSAPILVRRDAAPGASKLRAVLEKLKLSRDDISTAAGMVNGVVDHLLRRLKCDSAFRGVGLLNTGSYYEHVKISAPNEFDVMFKLEVPRIQLEEYSNTRAYYFVKFKRNPKENPLSQFLEGEILSASKMLSKFRKIIKEEINDIKDTDVIMKRKRGGSPAVTLLISEKISVDITLALESKSSWPASTQEGLRIQNWLSAKVRKQLRLKPFYLVPKHAKEGNGFQEETWRLSFSHIEKEILNNHGKSKTCCENKEEKCCRKDCLKLMKYLLEQLKERFKDKKHLDKFSSYHVKTAFFHVCTQNPQDSQWDRKDLGLCFDNCVTYFLQCLRTEKLENYFIPEFNLFSSNLIDKRSKEFLTKQIEYERNNEFPVFDEF	potently inhibited V. cholerae chemotaxis	unaffected	full enzyme activation	restored the ability of hcGAS to form a stable lower molecular weight protein-DNA complex	2′3′ cGAMP synthesis [2]: elevated 2′3′ cGAMP synthesis; also recorded: dramatically enhanced 2′3′ cGAMP synthesis; enzyme kinetics of 2′3′ cGAMP synthesis ([2]; varying ATP concentration, compared to mcGAS): nearly equal to mcGAS
K187N (protein, listed as Homo sapiens) MQPWHGKAMQRASEAGATAPKASARNARGAPMDPTESPAAPEAALPKAGKFGPARKSGSRQKKSAPDTQERPPVRATGARAKKAPQRAQDTQPSDATSAPGAEGLEPPAAREPALSRAGSCRQRGARCSTKPRPPPGPWDVPSPGLPVSAPILVRRDAAPGASKLRAVLEKLKLSRDDISTAAGMVNGVVDHLLLRLKCDSAFRGVGLLNTGSYYEHVKISAPNEFDVMFKLEVPRIQLEEYSNTRAYYFVKFKRNPKENPLSQFLEGEILSASKMLSKFRKIIKEEINDIKDTDVIMKRKRGGSPAVTLLISEKISVDITLALESKSSWPASTQEGLRIQNWLSAKVRKQLRLKPFYLVPKHAKEGNGFQEETWRLSFSHIEKEILNNHGKSKTCCENKEEKCCRKDCLKLMKYLLEQLKERFKDKKHLDKFSSYHVKTAFFHVCTQNPQDSQWDRKDLGLCFDNCVTYFLQCLRTEKLENYFIPEFNLFSSNLIDKRSKEFLTKQIEYERNNEFPVFDEF	Neither K187N nor L195R alone was sufficient to enhance hcGAS activity	–	–	–	–
L195R (protein, listed as Homo sapiens) MQPWHGKAMQRASEAGATAPKASARNARGAPMDPTESPAAPEAALPKAGKFGPARKSGSRQKKSAPDTQERPPVRATGARAKKAPQRAQDTQPSDATSAPGAEGLEPPAAREPALSRAGSCRQRGARCSTKPRPPPGPWDVPSPGLPVSAPILVRRDAAPGASKLRAVLEKLKLSRDDISTAAGMVKGVVDHLLRRLKCDSAFRGVGLLNTGSYYEHVKISAPNEFDVMFKLEVPRIQLEEYSNTRAYYFVKFKRNPKENPLSQFLEGEILSASKMLSKFRKIIKEEINDIKDTDVIMKRKRGGSPAVTLLISEKISVDITLALESKSSWPASTQEGLRIQNWLSAKVRKQLRLKPFYLVPKHAKEGNGFQEETWRLSFSHIEKEILNNHGKSKTCCENKEEKCCRKDCLKLMKYLLEQLKERFKDKKHLDKFSSYHVKTAFFHVCTQNPQDSQWDRKDLGLCFDNCVTYFLQCLRTEKLENYFIPEFNLFSSNLIDKRSKEFLTKQIEYERNNEFPVFDEF	Neither K187N nor L195R alone was sufficient to enhance hcGAS activity	–	–	–	–

From patent publication US12146168B2, “Human CGAS-DNA complex and encoded protein” (priority 2018, dated 2024)
